In publication PMC7036753, “Lipidated Analogs of the LL-37-Derived Peptide Fragment KR12—Structural Analysis, Surface-Active Properties and Antimicrobial Activity” (International Journal of Molecular Sciences, 2020):
In brackets after ≈: the same amount, converted by molar mass. Peptide text beside a SMILES is read from it. * marks the point of attachment. Bz = O=C(c1ccccc1)*

Tests used:
[1] = test system: human keratinocytes (HaCaT); type: cell-based; settings: HaCaT, MTT, 24 h
Experimental: The cytotoxicity of test compounds (IC50) was evaluated for human keratinocytes (HaCaT, ATCC) using classic MTT assay on 96-well plates. In this assay, a colorimetric determination of the cell metabolic activity was carried out. Specifically, the color intensity reflects the number of live cells that can be measured spectrophotometrically. […] A day after plating 500 cells per well, a series of concentrations (0.5–500 μg/mL) of the test compounds were added. Dimethyl sulfoxide (DMSO) was used as a control in cells at a final concentration of 1.0% (v/v), which was related to the maximal concentration of the solvent compounds used in the experiment. After 24 h of incubation with test compounds, a medium containing 1 mg/mL of MTT was added up to a final concentration of 0.5 mg/mL and subsequently incubated at 37 °C for 4 h. Then, the medium was aspirated and the formazan product was solubilized with DMSO. The background absorbance at 630 nm was subtracted from that at 570 nm for each well (Epoch, BioTek Instruments, Winooski, VT, USA). Six replicates were conducted for each concentration. All experiments were repeated at least twice and the resulting IC50 values were calculated with a GraFit 7 software (v. 7.0, Erithacus, Berkley, CA, USA).

[2] = test system: reference strains of S. aureus; type: cell-based, Staphylococcus aureus; settings: five reference strains of S. aureus
Experimental: Examination of antimicrobial activity of the test compounds was conducted on reference strains of bacteria assigned to ESKAPE group of pathogens: Enterococcus faecium ATCC 700221, Klebsiella pneumoniae ATCC 700603, Acinetobacter baumannii ATCC BAA-1605, Pseudomonas aeruginosa ATCC 9027, Klebsiella aerogenes ATCC 13048 (formerly Enterobacter aerogenes) and reference strains of Staphylococcus aureus, namely: S. aureus ATCC 25923, S. aureus ATCC 6538, S. aureus ATCC 33591 (MRSA), S. aureus ATCC 9144 and S. aureus ATCC 12598. All the strains were stored at −80 °C in Roti®-Store cryo vials (Carl Roth GmbH, Karlsruhe, Germany) and before the tests were transferred into fresh Mueller-Hinton Medium (BioMaxima, Lublin, Poland) and incubated for 24 h at 37 °C. Subsequently, each bacterial inoculum was seeded on Mueller-Hinton Agar plates (BioMaxima) and incubated again for 24 h. The cultures prepared in this way were used in further antimicrobial assays and prepared as described above. The MIC values were determined by the broth microdilution method according to Clinical and Laboratory Standards Institute Protocol. […] The experiments were conducted on 96-well microtiter plates, with a final volume of 100 µL. Cell densities were adjusted spectrophotometrically (Multiskan™ GO Microplate Spectrophotometer, Thermo Scientific) at 600 nm. The MICs were taken as the lowest drug concentration at which a visible growth of microorganisms was inhibited. All experiments were conducted in triplicate and included positive (growth) and negative (sterility) controls.

[3] = test system: human red blood cells (hRBCs); test: Hemolysis assay; type: cell-based; settings: concentration range 0.5–256 μg/mL
Experimental: Then the stock RBCs solution was added up to a final volume of 100 μL with a 4% concentration of erythrocytes (v/v). The control wells for 0 and 100% hemolysis were also prepared. They consisted of RBCs suspended in PBS and 1% of Triton-X 100, respectively.

K. aerogenes ATCC 13048 = type: cell-based, Klebsiella aerogenes; settings: K. aerogenes ATCC 13048; Mueller-Hinton Broth, 18 h
Experimental: Examination of antimicrobial activity of the test compounds was conducted on reference strains of bacteria assigned to ESKAPE group of pathogens: Enterococcus faecium ATCC 700221, Klebsiella pneumoniae ATCC 700603, Acinetobacter baumannii ATCC BAA-1605, Pseudomonas aeruginosa ATCC 9027, Klebsiella aerogenes ATCC 13048 (formerly Enterobacter aerogenes) and reference strains of Staphylococcus aureus, namely: S. aureus ATCC 25923, S. aureus ATCC 6538, S. aureus ATCC 33591 (MRSA), S. aureus ATCC 9144 and S. aureus ATCC 12598. All the strains were stored at −80 °C in Roti®-Store cryo vials (Carl Roth GmbH, Karlsruhe, Germany) and before the tests were transferred into fresh Mueller-Hinton Medium (BioMaxima, Lublin, Poland) and incubated for 24 h at 37 °C. Subsequently, each bacterial inoculum was seeded on Mueller-Hinton Agar plates (BioMaxima) and incubated again for 24 h. The cultures prepared in this way were used in further antimicrobial assays and prepared as described above. The MIC values were determined by the broth microdilution method according to Clinical and Laboratory Standards Institute Protocol. For this purpose, initial inoculums of bacteria (0.5 × 10^5 colony forming unit (CFU)/mL) in Mueller–Hinton Broth were exposed to the ranging concentrations of compounds (0.5–256 µg/mL) and incubated for 18 h at 37 °C. The experiments were conducted on 96-well microtiter plates, with a final volume of 100 µL. Cell densities were adjusted spectrophotometrically (Multiskan™ GO Microplate Spectrophotometer, Thermo Scientific) at 600 nm. The MICs were taken as the lowest drug concentration at which a visible growth of microorganisms was inhibited. All experiments were conducted in triplicate and included positive (growth) and negative (sterility) controls.

CC[C@H](C)[C@H](NC(=O)[C@H](CCCNC(=N)N)NC(=O)[C@H](CCC(N)=O)NC(=O)[C@@H](NC(=O)[C@@H](NC(=O)[C@H](CCCNC(=N)N)NC(=O)[C@H](CCCCN)NC(=O)c1ccccc1)[C@@H](C)CC)C(C)C)C(=O)N[C@@H](CCCCN)C(=O)N[C@@H](CC(=O)O)C(=O)N[C@@H](Cc1ccccc1)C(=O)N[C@@H](CC(C)C)C(=O)N[C@@H](CCCNC(=N)N)C(N)=O [VIII, Benzoic acid-KR12-NH2] (Bz-KRIVQRIKDFLR-NH2)
IC50 [1]: 40.50 µg/mL (≈ 24.2 µM) | GM (geometric mean of the MIC values against S. aureus) [2]: 18.38 µg/mL | hemolysis of hRBCs [3]: did not cause hemolysis | MIC (K. aerogenes ATCC 13048): 16 µg/mL (≈ 9.55 µM)
